target: CCR2 (Homo sapiens (Human), UniProt P41597); assay: Calcium activity assayed on the FLIPR Tetra in HEK-Gqi5 cells stably expressing CCR2; format: cell-based; conditions: FLIPR Tetra calcium assay
Procedure: HEK-Gqi5 cells stably expressing CCR2 were cultured in (DMEM high glucose, 10% FBS, 1% PSA, 400 μg/ml geneticin and 50 μg/ml hygromycin. Appropriate positive control chemokines (MCP-1, MIP1A or RANTES) was used as the positive control agonist for screening compound-induced calcium activity assayed on the FLIPR^Tetra. The drug plates were prepared in 384-well microplates using the EP3 and the MuItiPROBE robotic liquid handling systems. Compounds were synthesized and tested for CCR^2 activity.

Sequence of CCR2 (P41597 whole entry, species assumed): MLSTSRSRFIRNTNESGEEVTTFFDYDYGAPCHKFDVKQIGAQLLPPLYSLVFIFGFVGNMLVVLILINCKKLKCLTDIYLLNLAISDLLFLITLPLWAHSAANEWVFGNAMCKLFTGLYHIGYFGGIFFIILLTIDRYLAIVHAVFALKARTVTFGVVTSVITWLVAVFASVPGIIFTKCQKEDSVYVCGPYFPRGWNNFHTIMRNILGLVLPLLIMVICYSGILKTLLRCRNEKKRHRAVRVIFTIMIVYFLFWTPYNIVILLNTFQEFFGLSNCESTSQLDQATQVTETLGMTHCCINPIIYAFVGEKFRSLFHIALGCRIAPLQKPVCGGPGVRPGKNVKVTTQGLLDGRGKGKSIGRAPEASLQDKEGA

Compared with CN(C)C(=O)CCS(=O)(=O)c1ccc(Cl)cc1NS(=O)(=O)c1ccc(Cl)cc1F [3-[(4-chloro-2-{[(4-chloro-2-fluorophenyl)sulfonyl]amino}phenyl)sulfonyl]-N,N-dimethylpropanamide], CN(C)C(=O)CCSc1ccc(Cl)cc1NS(=O)(=O)c1ccc(Cl)cc1F [3-[(4-chloro-2-{[(4-chloro-2-fluorophenyl)sulfonyl]amino}phenyl)thio]-N,N-dimethylpropanamide] is lower in “CCR2 % ANTAGONISM” value: 97% for the first, 78% for the second.

First: C[S+]([O-])c1ccc(Cl)cc1NS(=O)(=O)c1cccc(Cl)c1F (stereo not shown) [3-chloro-N-[5-chloro-2-(methylsulfinyl)phenyl]-2-fluorobenzenesulfonamide]
Second: C[S+]([O-])c1ccc(Cl)cc1NS(=O)(=O)c1ccc(Cl)cc1F (stereo not shown) [4-chloro-N-[5-chloro-2-(methylsulfinyl)phenyl]-2-fluorobenzenesulfonamide]
The “CCR2 % ANTAGONISM” value of the first is lower: 101% for the first, 103% for the second.

Going from CS(=O)(=O)c1ccc(Cl)cc1NS(=O)(=O)c1cccc(Cl)c1F [3-chloro-N-[5-chloro-2-(methylsulfonyl)phenyl]-2-fluorobenzenesulfonamide] to CS(=O)(=O)c1ccc(Cl)cc1NS(=O)(=O)c1ccc(Cl)cc1F [4-chloro-N-[5-chloro-2-(methylsulfonyl)phenyl]-2-fluorobenzenesulfonamide], the “CCR2 % ANTAGONISM” value falls from 101% to 98%.

First: CSc1ccc(Cl)cc1NS(=O)(=O)c1cccc(Cl)c1F [3-chloro-N-[5-chloro-2-(methylthio)phenyl]-2-fluorobenzenesulfonamide]
Second: CSc1ccc(Cl)cc1NS(=O)(=O)c1ccc(Cl)c(C)c1 [4-chloro-N-[5-chloro-2-(methylthio)phenyl]-3-methylbenzenesulfonamide]
The “CCR2 % ANTAGONISM” value of the first is higher: 94% for the first, 93% for the second.

Compared with CN(C)C(=O)CC[S+]([O-])c1ccc(Cl)cc1NS(=O)(=O)c1ccc(Cl)c(C(F)(F)F)c1 (stereo not shown) [3-{[4-chloro-2-({[4-chloro-3-(trifluoromethyl)phenyl]sulfonyl}amino)phenyl]sulfinyl}-N,N-dimethylpropanamide], NC(=O)CC[S+]([O-])c1ccc(Cl)cc1NS(=O)(=O)c1ccc(Cl)c(C(F)(F)F)c1 (stereo not shown) [3-{[4-chloro-2-({[4-chloro-3-(trifluoromethyl)phenyl]sulfonyl}amino)phenyl]sulfinyl}propanamide] is higher in “CCR2 % ANTAGONISM” value: 89% for the first, 99% for the second.

Compared with CC(C)NC(=O)CC[S+]([O-])c1ccc(Cl)cc1NS(=O)(=O)c1ccc(Cl)c(C(F)(F)F)c1 (stereo not shown) [3-{[4-chloro-2-({[4-chloro-3-(trifluoromethyl)phenyl]sulfonyl}amino)phenyl]sulfinyl}-N-isopropylpropanamide], CC(C)NC(=O)CCSc1ccc(Cl)cc1NS(=O)(=O)c1ccc(Cl)c(C(F)(F)F)c1 [3-{[4-chloro-2-({[4-chloro-3-(trifluoromethyl)phenyl]sulfonyl}amino)phenyl]thio}-N-isopropylpropanamide] is lower in “CCR2 % ANTAGONISM” value: 93% for the first, 59% for the second.

Compared with CN(C)C(=O)CCS(=O)(=O)c1ccc(Cl)cc1NS(=O)(=O)c1ccc(Cl)c(C(F)(F)F)c1 [3-{[4-chloro-2-({[4-chloro-3-(trifluoromethyl)phenyl]sulfonyl}amino)phenyl]sulfonyl}-N,N-dimethylpropanamide], CCS(=O)(=O)c1ccc(Cl)cc1NS(=O)(=O)c1ccc(Cl)c(C(F)(F)F)c1 [4-chloro-N-[5-chloro-2-(ethylsulfonyl)phenyl]-3-(trifluoromethyl)benzenesulfonamide] is lower in “CCR2 % ANTAGONISM” value: 93% for the first, 90% for the second.

Going from CN(C)C(=O)CCSc1ccc(Cl)cc1NS(=O)(=O)c1ccc(Cl)c(C(F)(F)F)c1 [3-{[4-chloro-2-({[4-chloro-3-(trifluoromethyl)phenyl]sulfonyl}amino)phenyl]thio}-N,N-dimethylpropanamide] to CCSc1ccc(Cl)cc1NS(=O)(=O)c1ccc(Cl)c(C(F)(F)F)c1 [4-chloro-N-[5-chloro-2-(ethylthio)phenyl]-3-(trifluoromethyl)benzenesulfonamide], the “CCR2 % ANTAGONISM” value rises from 80% to 81%.

First: CN(C)C(=O)CCC[S+]([O-])c1ccc(Cl)cc1NS(=O)(=O)c1cc2ccccc2o1 (stereo not shown) [4-({2-[(1-benzofuran-2-ylsulfonyl)amino]-4-chlorophenyl}sulfinyl)-N,N-dimethylbutanamide]
Second: CN(C)C(=O)CCCS(=O)(=O)c1ccc(Cl)cc1NS(=O)(=O)c1cc2ccccc2o1 [4-({2-[(1-benzofuran-2-ylsulfonyl)amino]-4-chlorophenyl}sulfonyl)-N,N-dimethylbutanamide]
The “CCR2 % ANTAGONISM” value of the first is lower: 54% for the first, 98% for the second.

Going from C[S+]([O-])c1ccc(Cl)cc1NS(=O)(=O)c1ccc(Br)cc1 (stereo not shown) [4-bromo-N-[5-chloro-2-(methylsulfinyl)phenyl]benzenesulfonamide] to C[S+]([O-])c1ccc(Cl)cc1NS(=O)(=O)c1ccc(Cl)cc1 (stereo not shown) [4-chloro-N-[5-chloro-2-(methylsulfinyl)phenyl]benzenesulfonamide], the “CCR2 % ANTAGONISM” value falls from 94% to 91%.

Compared with CS(=O)(=O)c1ccc(Cl)cc1NS(=O)(=O)c1ccc(Br)cc1 [4-bromo-N-[5-chloro-2-(methylsulfonyl)phenyl]benzenesulfonamide], CS(=O)(=O)c1ccc(Cl)cc1NS(=O)(=O)c1ccc(Cl)cc1 [4-chloro-N-[5-chloro-2-(methylsulfonyl)phenyl]benzenesulfonamide] is higher in “CCR2 % ANTAGONISM” value: 84% for the first, 98% for the second.

Compared with CSc1ccc(Cl)cc1NS(=O)(=O)c1ccc(Br)cc1 [4-bromo-N-[5-chloro-2-(methylthio)phenyl]benzenesulfonamide], CSc1ccc(Cl)cc1NS(=O)(=O)c1ccc(Cl)c(C(F)(F)F)c1 [4-chloro-N-[5-chloro-2-(methylthio)phenyl]-3-(trifluoromethyl)benzenesulfonamide] is higher in “CCR2 % ANTAGONISM” value: 76% for the first, 82% for the second.

CC[S+]([O-])c1ccc(Cl)cc1NS(=O)(=O)c1ccc(Cl)c(C(F)(F)F)c1 (stereo not shown) [4-chloro-N-[5-chloro-2-(ethylsulfinyl)phenyl]-3-(trifluoromethyl)benzenesulfonamide] and C[S+]([O-])c1ccc(Cl)cc1NS(=O)(=O)c1ccc(Cl)c(C(F)(F)F)c1 (stereo not shown) [4-chloro-N-[5-chloro-2-(methylsulfinyl)phenyl]-3-(trifluoromethyl)benzenesulfonamide] are the same in “CCR2 % ANTAGONISM” value: 78% for the first, 78% for the second.

First: CC(C)Sc1ccc(Cl)cc1NS(=O)(=O)c1ccc(Cl)c(C(F)(F)F)c1 [4-chloro-N-[5-chloro-2-(isopropylthio)phenyl]-3-(trifluoromethyl)benzenesulfonamide]
Second: CS(=O)(=O)c1ccc(Cl)cc1NS(=O)(=O)c1ccc(Cl)c(C(F)(F)F)c1 [4-chloro-N-[5-chloro-2-(methylsulfonyl)phenyl]-3-(trifluoromethyl)benzenesulfonamide]
The “CCR2 % ANTAGONISM” value of the first is lower: 72% for the first, 90% for the second.

Going from CN(C)C(=O)CCS(=O)(=O)c1ccc(Cl)cc1NS(=O)(=O)c1ccc(Cl)cc1F [3-[(4-chloro-2-{[(4-chloro-2-fluorophenyl)sulfonyl]amino}phenyl)sulfonyl]-N,N-dimethylpropanamide] to CN(C)C(=O)CCSc1ccc(Cl)cc1NS(=O)(=O)c1ccc(Cl)cc1F [3-[(4-chloro-2-{[(4-chloro-2-fluorophenyl)sulfonyl]amino}phenyl)thio]-N,N-dimethylpropanamide], the IC50 rises from 211 nM to 771 nM (3.7-fold). The first is the more potent here.

C[S+]([O-])c1ccc(Cl)cc1NS(=O)(=O)c1cccc(Cl)c1F (stereo not shown) [3-chloro-N-[5-chloro-2-(methylsulfinyl)phenyl]-2-fluorobenzenesulfonamide] and C[S+]([O-])c1ccc(Cl)cc1NS(=O)(=O)c1ccc(Cl)cc1F (stereo not shown) [4-chloro-N-[5-chloro-2-(methylsulfinyl)phenyl]-2-fluorobenzenesulfonamide] are within 1.5-fold of each other in IC50: 61 nM for the first, 85 nM for the second.

CS(=O)(=O)c1ccc(Cl)cc1NS(=O)(=O)c1cccc(Cl)c1F [3-chloro-N-[5-chloro-2-(methylsulfonyl)phenyl]-2-fluorobenzenesulfonamide] and CS(=O)(=O)c1ccc(Cl)cc1NS(=O)(=O)c1ccc(Cl)cc1F [4-chloro-N-[5-chloro-2-(methylsulfonyl)phenyl]-2-fluorobenzenesulfonamide] are within 1.5-fold of each other in IC50: 116 nM for the first, 171 nM for the second.

First: CSc1ccc(Cl)cc1NS(=O)(=O)c1cccc(Cl)c1F [3-chloro-N-[5-chloro-2-(methylthio)phenyl]-2-fluorobenzenesulfonamide]
Second: CSc1ccc(Cl)cc1NS(=O)(=O)c1ccc(Cl)c(C)c1 [4-chloro-N-[5-chloro-2-(methylthio)phenyl]-3-methylbenzenesulfonamide]
The IC50 of the first is 4.2-fold higher: 1920 nM for the first, 453 nM for the second. The second is the more potent here.

First: CN(C)C(=O)CC[S+]([O-])c1ccc(Cl)cc1NS(=O)(=O)c1ccc(Cl)c(C(F)(F)F)c1 (stereo not shown) [3-{[4-chloro-2-({[4-chloro-3-(trifluoromethyl)phenyl]sulfonyl}amino)phenyl]sulfinyl}-N,N-dimethylpropanamide]
Second: NC(=O)CC[S+]([O-])c1ccc(Cl)cc1NS(=O)(=O)c1ccc(Cl)c(C(F)(F)F)c1 (stereo not shown) [3-{[4-chloro-2-({[4-chloro-3-(trifluoromethyl)phenyl]sulfonyl}amino)phenyl]sulfinyl}propanamide]
The IC50 of the first is 8.3-fold lower: 96 nM for the first, 797 nM for the second.

Compared with CC(C)NC(=O)CC[S+]([O-])c1ccc(Cl)cc1NS(=O)(=O)c1ccc(Cl)c(C(F)(F)F)c1 (stereo not shown) [3-{[4-chloro-2-({[4-chloro-3-(trifluoromethyl)phenyl]sulfonyl}amino)phenyl]sulfinyl}-N-isopropylpropanamide], CC(C)NC(=O)CCSc1ccc(Cl)cc1NS(=O)(=O)c1ccc(Cl)c(C(F)(F)F)c1 [3-{[4-chloro-2-({[4-chloro-3-(trifluoromethyl)phenyl]sulfonyl}amino)phenyl]thio}-N-isopropylpropanamide] is 1.7-fold lower in IC50: 1790 nM for the first, 1030 nM for the second. The second is the more potent here.

First: CN(C)C(=O)CCS(=O)(=O)c1ccc(Cl)cc1NS(=O)(=O)c1ccc(Cl)c(C(F)(F)F)c1 [3-{[4-chloro-2-({[4-chloro-3-(trifluoromethyl)phenyl]sulfonyl}amino)phenyl]sulfonyl}-N,N-dimethylpropanamide]
Second: CCS(=O)(=O)c1ccc(Cl)cc1NS(=O)(=O)c1ccc(Cl)c(C(F)(F)F)c1 [4-chloro-N-[5-chloro-2-(ethylsulfonyl)phenyl]-3-(trifluoromethyl)benzenesulfonamide]
The IC50 of the first is 2.5-fold higher: 217 nM for the first, 88 nM for the second. The second is the more potent here.

First: CN(C)C(=O)CCSc1ccc(Cl)cc1NS(=O)(=O)c1ccc(Cl)c(C(F)(F)F)c1 [3-{[4-chloro-2-({[4-chloro-3-(trifluoromethyl)phenyl]sulfonyl}amino)phenyl]thio}-N,N-dimethylpropanamide]
Second: CCSc1ccc(Cl)cc1NS(=O)(=O)c1ccc(Cl)c(C(F)(F)F)c1 [4-chloro-N-[5-chloro-2-(ethylthio)phenyl]-3-(trifluoromethyl)benzenesulfonamide]
The IC50 of the first is 2.6-fold higher: 506 nM for the first, 193 nM for the second.

First: CN(C)C(=O)CCCS(=O)(=O)c1ccc(Cl)cc1NS(=O)(=O)c1cc2ccccc2o1 [4-({2-[(1-benzofuran-2-ylsulfonyl)amino]-4-chlorophenyl}sulfonyl)-N,N-dimethylbutanamide]
Second: CS(=O)(=O)c1ccc(Cl)cc1NS(=O)(=O)c1ccc(Br)cc1 [4-bromo-N-[5-chloro-2-(methylsulfonyl)phenyl]benzenesulfonamide]
The IC50 of the first is 2.5-fold higher: 1000 nM for the first, 403 nM for the second. The second is the more potent here.

First: C[S+]([O-])c1ccc(Cl)cc1NS(=O)(=O)c1ccc(Br)cc1 (stereo not shown) [4-bromo-N-[5-chloro-2-(methylsulfinyl)phenyl]benzenesulfonamide]
Second: C[S+]([O-])c1ccc(Cl)cc1NS(=O)(=O)c1ccc(Cl)cc1 (stereo not shown) [4-chloro-N-[5-chloro-2-(methylsulfinyl)phenyl]benzenesulfonamide]
The IC50 of the first is 1.9-fold higher: 116 nM for the first, 62 nM for the second.

Going from CSc1ccc(Cl)cc1NS(=O)(=O)c1ccc(Br)cc1 [4-bromo-N-[5-chloro-2-(methylthio)phenyl]benzenesulfonamide] to CSc1ccc(Cl)cc1NS(=O)(=O)c1ccc(Cl)c(C(F)(F)F)c1 [4-chloro-N-[5-chloro-2-(methylthio)phenyl]-3-(trifluoromethyl)benzenesulfonamide], the IC50 falls from 1330 nM to 134 nM (9.9-fold). The second is the more potent here.

First: CC[S+]([O-])c1ccc(Cl)cc1NS(=O)(=O)c1ccc(Cl)c(C(F)(F)F)c1 (stereo not shown) [4-chloro-N-[5-chloro-2-(ethylsulfinyl)phenyl]-3-(trifluoromethyl)benzenesulfonamide]
Second: C[S+]([O-])c1ccc(Cl)cc1NS(=O)(=O)c1ccc(Cl)c(C(F)(F)F)c1 (stereo not shown) [4-chloro-N-[5-chloro-2-(methylsulfinyl)phenyl]-3-(trifluoromethyl)benzenesulfonamide]
The IC50 of the first is 3.6-fold higher: 50 nM for the first, 14 nM for the second.

First: CC(C)Sc1ccc(Cl)cc1NS(=O)(=O)c1ccc(Cl)c(C(F)(F)F)c1 [4-chloro-N-[5-chloro-2-(isopropylthio)phenyl]-3-(trifluoromethyl)benzenesulfonamide]
Second: CS(=O)(=O)c1ccc(Cl)cc1NS(=O)(=O)c1ccc(Cl)c(C(F)(F)F)c1 [4-chloro-N-[5-chloro-2-(methylsulfonyl)phenyl]-3-(trifluoromethyl)benzenesulfonamide]
The IC50 of the first is 5.9-fold higher: 379 nM for the first, 64 nM for the second. The second is the more potent here.

In the case of CS(=O)(=O)c1ccc(Cl)cc1NS(=O)(=O)c1ccc(Cl)cc1 [4-chloro-N-[5-chloro-2-(methylsulfonyl)phenyl]benzenesulfonamide], the IC50 is reported as 155 nM.
